Results on 8 molecules are retold here after article PMC11870044, “Exploring the Antibacterial and Antiparasitic Activity of Phenylaminonaphthoquinones—Green Synthesis, Biological Evaluation and Computational Study” (International Journal of Molecular Sciences, 2024).

Converted amounts (≈) assume the structure as drawn. Like-named read-outs stand apart in the source and are kept apart here.

Data set [1] has as its system Enterococcus faecalis (ATCC 29212). Nature of the data set: Minimum inhibitory concentration, broth dilution method. It is filed as cell-based. As to the method:
(§1) The microorganisms used were Staphylococcus aureus (ATCC 25923), Proteus mirabilis (ATCC 12453) Enterococcus faecalis (ATCC 29212), Escherichia coli (ATCC 25922), Salmonella typhimurium (ATCC 19585), and Klebsiella pneumoniae (ATCC 700603).
(§2) The antimicrobial activity of the phenylaminonaphthoquinones 1–12 was determined by the broth dilution method. The following concentrations were tested: 200, 100, 50, 25, and 12.5 μg/mL. After incubation, the microbial growth was examined. The results are expressed in minimum inhibitory concentration (MIC), the lowest concentration of phenylaminonaphthoquinones with no visible growth. The bactericidal/bacteriostatic activity was determined by sub-cultivation of the samples in normal culture media at appropriate temperatures and incubation times. The MIC of each compound was performed in triplicate. The compounds 1–12 were dissolved in DMSO. Cefazolin and cefotaxime were used as positive controls at the same compound concentrations.
For orientation: Dilution methods test growth across graded concentrations, often in twofold steps.

The subject of data set [2] is Escherichia coli (ATCC 25922). The description is as above. The class given is cell-based. The procedure: as §1, §2
Data set [3] relates to Klebsiella pneumoniae (ATCC 700603). Described as above. It is filed as cell-based. The procedure: as §1, §2
Data set [4] has as its system Proteus mirabilis (ATCC 12453). The data set is described as above. The class given is cell-based. The procedure: as §1, §2
For data set [5], the system named is Salmonella typhimurium (ATCC 19585). The description is as above. It is filed as cell-based. Conditions: Salmonella enterica, read-out: MIC S. typhimurium G−. As to the method: as §1, §2
The test system of data set [6] is Staphylococcus aureus (ATCC 25923). The data set is described as above. It is filed as cell-based. Conditions: for MIC: Staphylococcus aureus; for MIC S. aureus G+: broth dilution. As to the method:
as §1, §2

Data set [7] concerns Plasmodium falciparum 3D7 (chloroquine-sensitive). Briefly: In vitro antiplasmodial screening, parasitemia by flow cytometry. It is filed as cell-based. Conditions: for Plasmodium falciparum 3D7 Growth Inhibition (%): mean ± SD; for IC50: Plasmodium falciparum, read-out: Plasmodium falciparum 3D7 IC50. On the set-up: Plasmodium falciparum 3D7 Growth Inhibition (%): concentration or dose not given beside the values. As to the method:
(§3) The antimalarial activity assay was performed using Plasmodium falciparum 3D7 (chloroquine-sensitive) and FCR-3 (chloroquine-resistant) reference strains, which were cultured in vitro following the method described by Trager et al. with some modifications.
(§4) The experiments were performed in 96-well culture plates, where the stock solutions of compounds 1–12 (1, 0.1, 0.01, and 0.001 µg/mL) were tested. A total of 100 µL of each product was distributed in triplicate on the culture plates, and 100 µL of a red blood cell suspension (4% hematocrit, final parasitemia of 1% ring stage) was added, resulting in a final volume of 200 µL. The test plates were incubated at 37 °C for 48 h, and parasitemia was determined by flow cytometry (BDFACScalibur). Erythrocytes were taken from each well culture plate, and 100 µL of ethidium bromide (10 µg/mL) was added and incubated for 30 min. A total of 100,000 cells per well culture plate were acquired and analyzed. The IC50 of the pure products was determined by a regression curve of the percentage inhibition of parasite activity as a function of the logarithmic dose. Chloroquine diphosphate was used as the reference drug.

Data set [8] has as its system Plasmodium falciparum FCR-3 (chloroquine-resistant). The data set is described as above. It is filed as cell-based. On the set-up: Plasmodium falciparum FCR-3 Growth Inhibition (%): concentration or dose not given beside the values. Conditions: for Plasmodium falciparum FCR-3 Growth Inhibition (%): mean ± SD; for IC50: Plasmodium falciparum, read-out: Plasmodium falciparum FCR-3 IC50. The procedure: as §3, §4

The nature of data set [9]: Experimental log P, shake-flask method n-octanol/water. The note with it: 25 ± 1 °C. It is filed as physicochemical. The procedure: The mixture was then allowed to stand for 24 h at the same temperature for further phase separation. A stock solution with a concentration of 0.01 mol per liter in water, pre-saturated with n-octanol, was prepared for each compound. Duplicate test vessels containing a mixture of the stock solution and n-octanol (pre-saturated with water) were shaken on a vortex shaker for 5 min. Phase separation was achieved by centrifugation of the vessels for 3 min at 4000× g (25 ± 1 °C), and the concentration of the solute in the water phase (C water) was measured from their absorbance at 205 nm using a UV spectrophotometer. The partition coefficient was calculated using the following equation. Log Po/w = Log(C n-octanol/C water)
All the measurements were carried out at room temperature (25 ± 1 °C). In order to check the performance of the method, aniline was used as a reference substance.

Where [10] appears, read: ATCC29212, broth dilution, triplicate, read-out: MIC E. faecalis G+.
Where [11] appears, read: ATCC25922, broth dilution, triplicate, read-out: MIC E. coli G−.
The mark [12] stands for this setting: ATCC700603, broth dilution, triplicate, read-out: MIC K. pneumonia G−.
Setting [13] is: ATCC12453, broth dilution, triplicate, read-out: MIC P. mirabilis G+.
[14] abbreviates: ATCC25923, broth dilution, triplicate, read-out: MIC S. aureus G+.
Where [15] appears, read: 3D7 chloroquine-sensitive, 48 h.
Where [16] appears, read: FCR-3 chloroquine-resistant, 48 h.
The mark [17] stands for this setting: FCR3, FCR-3 chloroquine-resistant, 48 h.

Take `COc1ccc(OC)c(NC2=C(Cl)C(=O)c3ccccc3C2=O)c1` [Compound 10]: the MIC in data set [1] (setting [10]) is 70.8 µg/mL (≈ 206 µM); in data set [2] (setting [11]), 23.5 µg/mL (≈ 68.4 µM); in data set [3] (setting [12]), over 50 µg/mL; in [4] (setting [13]), over 50 µg/mL; in [5] (broth dilution, triplicate), 31.7 µg/mL (≈ 92.2 µM); in [6] (setting [14]) it was 3.2 to 5.7 µg/mL (≈ 9.31 to 16.6 µM). Also, in data set [6] (triplicate), the “MIC S. aureus G+” value was found to be 4.7 µg/mL (≈ 13.7 µM). The “Plasmodium falciparum 3D7 Growth Inhibition (%)” value in data set [7] (setting [15]) amounted to 20.0 ± 3.0%. Moreover, the IC50 in data set [7] (setting [15]) and in data set [8] (setting [17]) was over 1 µg/mL in each case. Further, in data set [8] (setting [16]), the “Plasmodium falciparum FCR-3 Growth Inhibition (%)” value came to 21.0 ± 4.0%. The logP in [9] came out at 1.94 ± 0.56.

In the case of `O=C1C=C(Nc2ccc(O)cc2)C(=O)c2ccccc21` [Compound 5], the MIC in data set [1] (ATCC29212, read-out: MIC E. faecalis G+) is over 50 µg/mL; in [2] (ATCC25922, read-out: MIC E. coli G−) it was over 50 µg/mL; in data set [3] (ATCC700603, read-out: MIC K. pneumonia G−) it was over 50 µg/mL; in [4] (ATCC12453, read-out: MIC P. mirabilis G+) it was 24.8 µg/mL (≈ 93.5 µM); in data set [5], over 50 µg/mL; in data set [6] (ATCC25923, read-out: MIC S. aureus G+, broth dilution, triplicate) it was 3.2 to 5.7 µg/mL (≈ 12.1 to 21.5 µM). Moreover, the “MIC S. aureus G+” value in [6] (triplicate) is 3.2 µg/mL (≈ 12.1 µM). The “Plasmodium falciparum 3D7 Growth Inhibition (%)” value in data set [7] (setting [15]) came out at 18.0 ± 1.0%. Moreover, the IC50 was over 1 µg/mL in data set [7] (3D7, 48 h) and 0.78 µg/mL (≈ 2.94 µM) in data set [8] (FCR3, 48 h). Besides, the “Plasmodium falciparum FCR-3 Growth Inhibition (%)” value in data set [8] (setting [16]) worked out at 61.0 ± 2.0%. Besides, the logP in [9] is 1.17 ± 0.81.

In the case of `CO/N=C(\C(=O)N[C@@H]1C(=O)N2C(C(=O)O)=C(COC(C)=O)CS[C@H]12)c1csc(N)n1` [CTX, cefotaxime, reference compound], the MIC in data set [1] (setting [10]) was 10.9 µg/mL (≈ 23.9 µM); in data set [2] (setting [11]), over 50 µg/mL; in [3] (setting [12]), 8.4 µg/mL (≈ 18.4 µM); in data set [4] (setting [13]), 8.9 µg/mL (≈ 19.5 µM); in data set [5] (broth dilution, triplicate), 8.2 µg/mL (≈ 18 µM); in [6] (setting [14]), 8.9 µg/mL (≈ 19.5 µM).

On to `CN(C1=CC(=O)c2ccccc2C1=O)c1ccccc1` [Compound 11], for which the MIC in data set [1] (setting [10]) is 30.2 µg/mL (≈ 115 µM); in data set [2] (setting [11]) it was over 50 µg/mL; in [3] (setting [12]) it was over 50 µg/mL; in data set [4] (setting [13]), 44 µg/mL (≈ 167 µM); in data set [5] (broth dilution, triplicate), over 50 µg/mL; in data set [6] (setting [14]), 3.2 to 5.7 µg/mL (≈ 12.2 to 21.6 µM). Besides, in data set [6] (triplicate), the “MIC S. aureus G+” value stood at 5.5 µg/mL (≈ 20.9 µM). In addition, the “Plasmodium falciparum 3D7 Growth Inhibition (%)” value in data set [7] (setting [15]) was determined as 26.0 ± 8.0%. Also, the IC50 in data set [7] (setting [15]) was over 1 µg/mL; in data set [8] (setting [17]), 0.55 µg/mL (≈ 2.09 µM). Besides, in data set [8] (setting [16]), the “Plasmodium falciparum FCR-3 Growth Inhibition (%)” value is recorded as 72.0 ± 2.0%. The same molecule yielded a logP in [9] of 2.31 ± 0.3.

For `O=C1C(Cl)=C(Nc2ccc(O)cc2)C(=O)c2ccccc21` [Compound 6], the MIC in [1] (setting [10]) is 49.9 µg/mL (≈ 166 µM); in data set [2] (setting [11]), 39.8 µg/mL (≈ 133 µM); in [3] (setting [12]), 40 µg/mL (≈ 133 µM); in data set [4] (setting [13]), 29.9 µg/mL (≈ 99.8 µM); in data set [5] (broth dilution, triplicate), 20 µg/mL (≈ 66.7 µM); in data set [6] (setting [14]), 19.6 µg/mL (≈ 65.4 µM). Besides, the “Plasmodium falciparum 3D7 Growth Inhibition (%)” value in data set [7] (setting [15]) was found to be 41.0 ± 2.0%. The IC50 was over 1 µg/mL in data set [7] (setting [15]) and 0.87 µg/mL (≈ 2.9 µM) in data set [8] (setting [17]). Further, the “Plasmodium falciparum FCR-3 Growth Inhibition (%)” value in [8] (setting [16]) is on record as 56.0 ± 3.0%. The logP in [9] turned out to be 1.22 ± 0.13.

Turning to `Cc1nnc(SCC2=C(C(=O)O)N3C(=O)[C@@H](NC(=O)Cn4cnnn4)[C@H]3SC2)s1` [CFZ, cefazolin, reference compound], the MIC was 8.4 µg/mL (≈ 18.5 µM) in [1] (setting [10]); over 50 µg/mL in [2] (setting [11]); 8.5 µg/mL (≈ 18.7 µM) in [3] (setting [12]); 5.6 µg/mL (≈ 12.3 µM) in [4] (setting [13]); 7.1 µg/mL (≈ 15.6 µM) in [5] (broth dilution, triplicate); 4.2 µg/mL (≈ 9.24 µM) in data set [6] (setting [14]).

Consider `COc1ccc(NC2=C(Cl)C(=O)c3ccccc3C2=O)cc1` [Compound 8], for which the MIC in data set [1] (setting [10]) was 40.1 µg/mL (≈ 128 µM); in data set [2] (setting [11]), over 50 µg/mL; in data set [3] (setting [12]), 49.1 µg/mL (≈ 156 µM); in data set [4] (setting [13]), 52.6 µg/mL (≈ 168 µM); in data set [5] (broth dilution, triplicate) it was 49.9 µg/mL (≈ 159 µM); in data set [6] (setting [14]), 21.9 µg/mL (≈ 69.8 µM). Further, in data set [7] (setting [15]), the “Plasmodium falciparum 3D7 Growth Inhibition (%)” value is 26.0 ± 2.0%. The IC50 in data set [7] (setting [15]) and in [8] (setting [17]) was over 1 µg/mL throughout. For the same molecule, the “Plasmodium falciparum FCR-3 Growth Inhibition (%)” value in [8] (setting [16]) is recorded as 34.0 ± 2.0%. Besides, the logP in data set [9] worked out at 1.81 ± 1.04.

With `CCN(CC)CCCC(C)Nc1ccnc2cc(Cl)ccc12` (stereo not drawn) [CQ, chloroquine, reference compound], the “Plasmodium falciparum 3D7 IC50” value in data set [7] (setting [15]) came out at 0.06 µg/mL. Further, the IC50 in data set [8] (FCR3, 48 h) was found to be 0.33 µg/mL (≈ 1.03 µM).

A word on the MIC: it is the smallest concentration in the dilution series that meets the test's criterion for growth inhibition. A word on the IC50: it is the concentration that inhibits the measured activity by half. By logP is commonly meant the decadic logarithm of the partition coefficient of the neutral form, usually between octanol and water.
